The values that follow come from ChEMBL document CHEMBL1201862, “PubChem BioAssay data set” (2004).

Among the test systems are UACC-62; OVCAR-8; SR; UO-31; IGROV-1; NCI-H460; MDA-MB-231; TK-10; HT-29; HCT-116; CAKI-1; Hs-578T; SW-620; HOP-92; HCC 2998; RPMI-8226; K562; SNB-19; MDA-N.
Test in all cases: growth of human tumour cells (NCI), 48 h

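96-well plates; 48 h exposure; 5 concentrations. Endpoints by linear interpolation between flanking doses. Not reached: highest tested concentration assigned. At the GI50, growth is halved.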 Calls of active or inactive are those of the source. No stated cut-off is given here; in the data, active = GI50 up to about 1.1 µM and inactive = higher.

Turning to `O=C(Nc1ccccc1C(=O)NCc1ccccc1)/C(=C/c1ccccc1O)NC(=O)c1ccccc1`, the GI50 in the test with UACC-62 was 33.7 µM (inactive); in the test on OVCAR-8, 95.1 µM (inactive); in the test on SR, > 100 µM (inactive); in the test with UO-31, 65.6 µM (inactive); with IGROV-1, 73.1 µM (inactive); in the test on NCI-H460 it was > 100 µM (inactive). Further, the GI50 with MDA-MB-231 is 27.1 µM (inactive); in the test on TK-10, 74.6 µM (inactive); in the test with HT-29, > 100 µM (inactive); with HCT-116 it was > 100 µM (inactive); in the test on CAKI-1, > 100 µM (inactive); in the test on Hs-578T it was 69 µM (inactive). Besides, the GI50 with SW-620 was > 100 µM (inactive); in the test on HOP-92 it was 75.3 µM (inactive); with HCC 2998, > 100 µM (inactive); in the test with RPMI-8226, > 100 µM (inactive); in the test on K562, > 100 µM (inactive); with SNB-19, > 100 µM (inactive).

Regarding `Cc1ccccc1N1C(N)=C(C#N)C(C#N)(C#N)C1c1ccccc1` (stereo unspecified), the GI50 in the test with UACC-62 was 17.9 µM (inactive); in the test with OVCAR-8, 20.9 µM (inactive); in the test with SR it was 23.9 µM (inactive); in the test with UO-31 it was 16.8 µM (inactive); in the test on IGROV-1, 17.9 µM (inactive); in the test with MDA-MB-231, 13.3 µM (inactive). In addition, the GI50 in the test with TK-10 was 14.6 µM (inactive); in the test with HT-29 it was 18.4 µM (inactive); with HCT-116, 18 µM (inactive); in the test on CAKI-1 it was 25.9 µM (inactive); with Hs-578T it was 20.1 µM (inactive); in the test with SW-620, 16.3 µM (inactive). For the same molecule, the GI50 was 13.8 µM (inactive) in the test on HOP-92, 16.8 µM (inactive) in the test with HCC 2998, 19.2 µM (inactive) with RPMI-8226 and 20 µM (inactive) in the test with SNB-19.

On to `CN(C)CCn1c(CO)nc2c1c(=O)n(C)c(=O)n2C`, for which the GI50 in the test on UACC-62, in the test on OVCAR-8, in the test on SR, in the test on UO-31, in the test on IGROV-1 and in the test with NCI-H460 was > 100 µM (inactive) each time. In addition, the GI50 in the test with MDA-MB-231, with TK-10, in the test with HT-29, in the test with HCT-116, in the test on CAKI-1 and in the test on Hs-578T was > 100 µM (inactive) each time. For the same molecule, the GI50 in the test with SW-620, in the test on HCC 2998, in the test with RPMI-8226, in the test with K562 and in the test on SNB-19 was > 100 µM (inactive) each time.

Regarding `O=C(NNC(=S)Nc1ccc(Br)cc1)c1cc(-c2ccccc2)nc2ccccc12`, the GI50 with UACC-62 is 20 µM (inactive); with OVCAR-8, 23.1 µM (inactive); with SR, 20.4 µM (inactive); in the test on UO-31, 17.1 µM (inactive); in the test on IGROV-1, 37.8 µM (inactive); in the test with NCI-H460, 20.8 µM (inactive). Further, the GI50 with MDA-MB-231 was 18.6 µM (inactive); with TK-10, 14.9 µM (inactive); in the test on HT-29, 32.1 µM (inactive); in the test on HCT-116, 16.7 µM (inactive); in the test on CAKI-1 it was 29.8 µM (inactive); in the test with Hs-578T it was 30.2 µM (inactive). The GI50 was 21.2 µM (inactive) in the test on SW-620; 20 µM (inactive) with HOP-92; 16.8 µM (inactive) in the test on HCC 2998; 14.3 µM (inactive) in the test on RPMI-8226; 25.2 µM (inactive) in the test with K562; 27.2 µM (inactive) in the test with SNB-19.

On to `CC[N+]1(C)CCC(O)(/C=C/c2ccc(Cl)c(Cl)c2)C(C(=O)/C=C/c2ccc(Cl)c(Cl)c2)C1` (stereo unspecified), for which the GI50 in the test on UACC-62 was 1.74 µM (inactive); with OVCAR-8, 2.55 µM (inactive); in the test with SR, 0.406 µM (active); in the test with UO-31, 1.83 µM (inactive); in the test with IGROV-1, 2.96 µM (inactive); in the test on NCI-H460 it was 2.99 µM (inactive). Moreover, the GI50 was 2.43 µM (inactive) with TK-10; 2.07 µM (inactive) in the test with HT-29; 1.57 µM (inactive) in the test on HCT-116; 4.07 µM (inactive) in the test on CAKI-1; 2.91 µM (inactive) with Hs-578T; 1.91 µM (inactive) with SW-620. Moreover, the GI50 in the test on HOP-92 is 1.7 µM (inactive); in the test with HCC 2998, 1.95 µM (inactive); in the test with RPMI-8226, 2.17 µM (inactive); with K562, 1.55 µM (inactive); in the test on SNB-19, 6.11 µM (inactive).

For `C=CC[C@H]1[C@@H](O[Si](C)(C)C(C)(C)C)[C@H](n2ccc(=O)[nH]c2=O)O[C@@H]1CO[Si](C)(C)C(C)(C)C`, the GI50 with UACC-62 was 1.74 µM (inactive); in the test on OVCAR-8 it was 1.87 µM (inactive); in the test on SR, 2.44 µM (inactive); in the test on UO-31, 1.69 µM (inactive); in the test on IGROV-1, 2.32 µM (inactive); in the test with NCI-H460, 1.9 µM (inactive). For the same molecule, the GI50 with MDA-MB-231 is 1.96 µM (inactive); in the test on TK-10, 2.97 µM (inactive); in the test with HT-29, 1.59 µM (inactive); in the test on HCT-116, 1.47 µM (inactive); with CAKI-1, 2.23 µM (inactive); in the test with Hs-578T, 3.01 µM (inactive). Further, the GI50 with SW-620 was 1.82 µM (inactive); in the test with HOP-92 it was 1.21 µM (inactive); in the test on HCC 2998, 1.93 µM (inactive); with RPMI-8226 it was 2.11 µM (inactive); with K562, 2.2 µM (inactive); with SNB-19, 2.39 µM (inactive).

As to `FC(F)=C(c1ccc(-c2ccc(Cl)cc2)cc1)C(F)(F)F`, the GI50 is 19 µM (inactive) with UACC-62; 24.3 µM (inactive) in the test with OVCAR-8; 23.3 µM (inactive) in the test with SR; 16.4 µM (inactive) in the test on UO-31; 17 µM (inactive) in the test with IGROV-1; 17.7 µM (inactive) in the test on NCI-H460. The GI50 in the test on MDA-MB-231 was 17.7 µM (inactive); in the test on TK-10, 15.8 µM (inactive); with HT-29, 25.6 µM (inactive); in the test on HCT-116 it was 17.5 µM (inactive); with CAKI-1 it was 19.8 µM (inactive); in the test on Hs-578T it was 26.1 µM (inactive). In addition, the GI50 is 20 µM (inactive) in the test with SW-620; 15.1 µM (inactive) in the test on HOP-92; 23.3 µM (inactive) in the test with RPMI-8226; 26.2 µM (inactive) in the test with K562; 19.3 µM (inactive) in the test with SNB-19.

`CC(O)CN1C(=O)NC(Cc2ccccc2)C1=O` (stereo unspecified): the GI50 with OVCAR-8, in the test with SR, in the test with UO-31, in the test on NCI-H460, with TK-10 and in the test with HT-29 was > 100 µM (inactive) throughout. The GI50 in the test on CAKI-1, in the test on SW-620, with HOP-92, with HCC 2998 and in the test on SNB-19 was > 100 µM (inactive) throughout.

On to `Clc1ccccc1C(SCc1ccccc1)SCc1ccccc1`, for which the GI50 in the test with MDA-N is > 100 µM (inactive); with UACC-62, 94.4 µM (inactive); in the test on OVCAR-8 it was > 100 µM (inactive); in the test with SR it was > 100 µM (inactive); in the test on UO-31, > 100 µM (inactive); in the test on IGROV-1, > 100 µM (inactive). Moreover, the GI50 in the test with NCI-H460, in the test with TK-10, in the test with HT-29, with HCT-116, in the test on CAKI-1 and in the test on SW-620 was > 100 µM (inactive) in each case. Further, the GI50 in the test on HOP-92, with HCC 2998, with RPMI-8226, in the test on K562 and with SNB-19 was > 100 µM (inactive) each time.

`Nc1nc(N)c2c(n1)CCC(S(=O)(=O)c1ccc3ccccc3c1)C2` (stereo unspecified): the GI50 in the test with MDA-N is 0.766 µM (active); with OVCAR-8, 5.26 µM (inactive); in the test with SR, 4.08 µM (inactive); in the test on UO-31, 5.45 µM (inactive); with NCI-H460, 0.891 µM (active); in the test with MDA-MB-231 it was 42.4 µM (inactive). In addition, the GI50 is 4.57 µM (inactive) in the test with TK-10; 1.26 µM (inactive) in the test with HT-29; 11.6 µM (inactive) in the test on HCT-116; 6 µM (inactive) with CAKI-1; 59.3 µM (inactive) with SW-620; 9.1 µM (inactive) in the test on HOP-92. For the same molecule, the GI50 with HCC 2998 is 13.6 µM (inactive); in the test with RPMI-8226, 12.5 µM (inactive); in the test with SNB-19 it was 3.61 µM (inactive).

Take `C=C[C@@]1(C)CC(=O)[C@]2(O)[C@@]3(C)[C@@H](OC(C)=O)CCC(C)(C)[C@@H]3[C@H](O)[C@H](OC(C)=O)[C@@]2(C)O1`: the GI50 in the test on MDA-N, with UACC-62, in the test with OVCAR-8, in the test with SR, in the test on UO-31 and in the test on IGROV-1 was > 100 µM (inactive) each time. The GI50 in the test with NCI-H460, in the test with MDA-MB-231, with HT-29, in the test with HCT-116, in the test on CAKI-1 and in the test on SW-620 was > 100 µM (inactive) each time. Further, the GI50 in the test with HOP-92, with HCC 2998, with K562 and in the test on SNB-19 was > 100 µM (inactive) throughout.

Consider `CCC(C)C1=C(OC(C)=O)[N+]2([O-])Oc3ccc(-c4c(OC(C)=O)c(OC(C)=O)c(-c5ccc(OC(C)=O)cc5)c(OC(C)=O)c4OC(C)=O)cc3OC2(C(C)CC)C(=O)N1OC(C)=O` (stereo unspecified), for which the GI50 is 12.3 µM (inactive) in the test with MDA-N; 9.06 µM (inactive) in the test with UACC-62; 22.4 µM (inactive) in the test with OVCAR-8; 13.7 µM (inactive) with SR; 30.6 µM (inactive) with UO-31; 11.5 µM (inactive) in the test on IGROV-1. Also, the GI50 was 18.9 µM (inactive) with NCI-H460; 40.3 µM (inactive) with MDA-MB-231; 37.7 µM (inactive) in the test on TK-10; 19.9 µM (inactive) in the test with HT-29; 9.62 µM (inactive) with HCT-116; 34 µM (inactive) with CAKI-1. The GI50 in the test on SW-620 was 20.5 µM (inactive); with RPMI-8226, 10.3 µM (inactive); with K562, 12.2 µM (inactive); in the test on SNB-19 it was 30.1 µM (inactive).
